Data as given in PubChem BioAssay (NCI).
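Where inhibition never reached the appropriate level, the endpoint shown equals the highest concentration tested. Otherwise, values were interpolated linearly from a five-concentration, 48-hour dose response in 96-well plates. At the TGI there is no net growth.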

Assays:
Test in all cases: NCI anticancer screen, dose series, 48 h
COLO 205 colon = tested on: COLO 205 colon
HOP-62 NSCLC = tested on: HOP-62 NSCLC
M14 melanoma = tested on: M14 melanoma
MDA-MB-231 breast = tested on: MDA-MB-231 breast
MDA-N = tested on: MDA-N
MOLT-4 leukemia = tested on: MOLT-4 leukemia
NCI-H226 lung = tested on: NCI-H226 lung
NCI-H23 lung = tested on: NCI-H23 lung
OVCAR-3 ovarian = tested on: OVCAR-3 ovarian
OVCAR-4 ovarian = tested on: OVCAR-4 ovarian
OVCAR-5 ovarian = tested on: OVCAR-5 ovarian
SF-268 CNS = tested on: SF-268 CNS
SF-295 CNS = tested on: SF-295 CNS
SN12C renal = tested on: SN12C renal
SR leukemia = tested on: SR leukemia
SW-620 colon = tested on: SW-620 colon
TK-10 renal = tested on: TK-10 renal
U251 CNS = tested on: U251 CNS
UACC-62 melanoma = tested on: UACC-62 melanoma
A498 renal = tested on: A498 renal

| SMILES | TGI (COLO 205 colon) [µM] | TGI (HOP-62 NSCLC) [µM] | TGI (M14 melanoma) [µM] | TGI (MDA-MB-231 breast) [µM] | TGI (MDA-N) [µM] | TGI (MOLT-4 leukemia) [µM] | TGI (NCI-H226 lung) [µM] | TGI (NCI-H23 lung) [µM] | TGI (OVCAR-3 ovarian) [µM] | TGI (OVCAR-4 ovarian) [µM] | TGI (OVCAR-5 ovarian) [µM] | TGI (SF-268 CNS) [µM] | TGI (SF-295 CNS) [µM] | TGI (SN12C renal) [µM] | TGI (SR leukemia) [µM] | TGI (SW-620 colon) [µM] | TGI (TK-10 renal) [µM] | TGI (U251 CNS) [µM] | TGI (UACC-62 melanoma) [µM] | TGI (A498 renal) [µM] |
| --- | --- | --- | --- | --- | --- | --- | --- | --- | --- | --- | --- | --- | --- | --- | --- | --- | --- | --- | --- | --- |
| Cc1nc(Nc2ccccc2Cl)sc1C(=O)CC(=O)C(=O)Nc1c(Cl)cccc1Cl | 38.7 | > 100 | > 100 | 42.9 | > 100 | 67.9 | 49.7 | > 100 | 57.8 | > 100 | > 100 | > 100 | > 100 | > 100 | 68.6 | 65.5 | > 100 | 64.3 | > 100 | – |
| CC(=O)Nc1ccc(NC(=O)c2c(Cl)c(Cl)c(Cl)c(Cl)c2-c2nc3ccccc3[nH]2)cc1 | 39.8 | > 100 | > 100 | – | > 100 | 98.7 | > 100 | > 100 | > 100 | > 100 | > 100 | > 100 | > 100 | > 100 | > 100 | > 100 | – | – | > 100 | > 100 |
| COc1cc(NC(C)=O)ccc1C(=O)N/N=C/c1ccc(Cl)cc1Cl | > 100 | > 100 | > 100 | – | 72.7 | > 100 | > 100 | > 100 | > 100 | 85.5 | > 100 | > 100 | > 100 | 64.6 | > 100 | > 100 | – | – | > 100 | 61 |
| Cc1ccc2c(=O)c3cccc(CC(=O)O)c3[nH]c2c1C | > 100 | > 100 | > 100 | > 100 | > 100 | > 100 | > 100 | > 100 | > 100 | > 100 | – | 90.5 | > 100 | > 100 | > 100 | > 100 | > 100 | > 100 | > 100 | > 100 |
| OC1(c2ccccc2)CC2CCC(C1)N2CCCC1(c2ccc(F)cc2)OCCO1 (stereo unspecified) | > 100 | > 100 | 44.9 | > 100 | > 100 | > 100 | – | > 100 | > 100 | > 100 | > 100 | > 100 | 10.9 | > 100 | > 100 | > 100 | > 100 | > 100 | > 100 | > 100 |
| CC(=O)N1OC(C)CC1Nc1ccc(Br)cc1 (stereo unspecified) | – | 6.13 | > 100 | – | > 100 | > 100 | > 100 | > 100 | > 100 | – | > 100 | > 100 | > 100 | > 100 | > 100 | > 100 | > 100 | > 100 | > 100 | > 100 |
| Cc1nc2ccc(S(=O)(=O)Nc3ccccc3)cc2c(=O)n1NC(=O)CNc1ccccc1 | > 100 | > 100 | > 100 | > 100 | > 100 | > 100 | > 100 | > 100 | > 100 | > 100 | > 100 | > 100 | > 100 | > 100 | > 100 | > 100 | > 100 | > 100 | > 100 | – |
| CCOP(=O)(CCCC(O)CNc1cc(Cl)nc(N)n1)OCC (stereo unspecified) | > 100 | > 100 | – | > 100 | > 100 | > 100 | > 100 | > 100 | > 100 | > 100 | > 100 | > 100 | > 100 | > 100 | > 100 | > 100 | > 100 | > 100 | > 100 | > 100 |
| O=C1CC(O)c2c(Br)sc(Br)c21 (stereo unspecified) | 31 | 24.5 | 28.8 | 29.9 | 22.5 | 4.61 | – | 57.7 | 19.9 | – | 38.6 | 43.8 | 32 | 34.2 | 29.6 | 4.53 | 13.3 | 16.4 | 26.3 | 39.6 |
| O=C(O)CN1CCN2CCOCCOCCN(CC1)CCN(CC(=O)O)CC2 | > 100 | > 100 | > 100 | > 100 | > 100 | – | > 100 | – | > 100 | > 100 | > 100 | – | > 100 | > 100 | > 100 | > 100 | > 100 | > 100 | > 100 | > 100 |
| O=C1C(N2CCNCC2)=C(Cl)C(=O)c2ncccc21 | > 10 | > 10 | > 10 | > 10 | > 10 | > 10 | > 10 | > 10 | > 10 | > 10 | > 10 | > 10 | > 10 | > 10 | > 10 | > 10 | > 10 | > 10 | > 10 | – |
| O=S1CCS(=O)CCS(=O)CC1 (stereo unspecified) | > 100 | > 100 | > 100 | > 100 | > 100 | > 100 | – | > 100 | > 100 | > 100 | > 100 | > 100 | > 100 | > 100 | > 100 | > 100 | > 100 | > 100 | > 100 | – |
| CN(C)c1ccc(/C=c2/c3ccccc3n3nc4ccccc4c23)cc1 | 50.9 | > 100 | > 100 | > 100 | 33.6 | > 100 | – | > 100 | > 100 | – | > 100 | > 100 | 70.6 | > 100 | 25.1 | > 100 | > 100 | > 100 | > 100 | 67 |
